Results as given in article PMC11345841, “Exploring 2-Sulfonylpyrimidine Warheads as Acrylamide Surrogates for Targeted Covalent Inhibition: A BTK Story” (Journal of Medicinal Chemistry, 2024).
Where two headings read alike, the source gives them in different places.

Experiments:
SYK = target: T1, SYK (Homo sapiens, UniProt P43405); test: KINOMEscan ScanTK; assay type: binding
T1 construct: purchased Eurofins DiscoverX KINOMEscan (scanTK)

[1] = target: T2, ABL1(Q252H)-nonphosphorylated (Homo sapiens, UniProt P00519, Q252H); test: KINOMEscan ScanTK; assay type: binding
T2 construct: purchased Eurofins DiscoverX KINOMEscan (scanTK)

FGFR3 = target: T3, FGFR3 (Homo sapiens, UniProt P22607); test: KINOMEscan ScanTK; assay type: binding
T3 construct: purchased Eurofins DiscoverX KINOMEscan (scanTK)

FLT1 = target: T4, FLT1 (Homo sapiens, UniProt P17948); test: KINOMEscan ScanTK; assay type: binding
T4 construct: purchased Eurofins DiscoverX KINOMEscan (scanTK)

ABL1-phosphorylated = target: T5, ABL1-phosphorylated (Homo sapiens, UniProt P00519); test: KINOMEscan ScanTK; assay type: binding
T5 construct: purchased Eurofins DiscoverX KINOMEscan (scanTK)

[2] = target: T6, ABL1(H396P)-phosphorylated (Homo sapiens, UniProt P00519, H396P); test: KINOMEscan ScanTK; assay type: binding
T6 construct: purchased Eurofins DiscoverX KINOMEscan (scanTK)

EPHA8 = target: T7, EPHA8 (Homo sapiens, UniProt P29322); test: KINOMEscan ScanTK; assay type: binding
T7 construct: purchased Eurofins DiscoverX KINOMEscan (scanTK)
T7 sequence (P29322 28-1005): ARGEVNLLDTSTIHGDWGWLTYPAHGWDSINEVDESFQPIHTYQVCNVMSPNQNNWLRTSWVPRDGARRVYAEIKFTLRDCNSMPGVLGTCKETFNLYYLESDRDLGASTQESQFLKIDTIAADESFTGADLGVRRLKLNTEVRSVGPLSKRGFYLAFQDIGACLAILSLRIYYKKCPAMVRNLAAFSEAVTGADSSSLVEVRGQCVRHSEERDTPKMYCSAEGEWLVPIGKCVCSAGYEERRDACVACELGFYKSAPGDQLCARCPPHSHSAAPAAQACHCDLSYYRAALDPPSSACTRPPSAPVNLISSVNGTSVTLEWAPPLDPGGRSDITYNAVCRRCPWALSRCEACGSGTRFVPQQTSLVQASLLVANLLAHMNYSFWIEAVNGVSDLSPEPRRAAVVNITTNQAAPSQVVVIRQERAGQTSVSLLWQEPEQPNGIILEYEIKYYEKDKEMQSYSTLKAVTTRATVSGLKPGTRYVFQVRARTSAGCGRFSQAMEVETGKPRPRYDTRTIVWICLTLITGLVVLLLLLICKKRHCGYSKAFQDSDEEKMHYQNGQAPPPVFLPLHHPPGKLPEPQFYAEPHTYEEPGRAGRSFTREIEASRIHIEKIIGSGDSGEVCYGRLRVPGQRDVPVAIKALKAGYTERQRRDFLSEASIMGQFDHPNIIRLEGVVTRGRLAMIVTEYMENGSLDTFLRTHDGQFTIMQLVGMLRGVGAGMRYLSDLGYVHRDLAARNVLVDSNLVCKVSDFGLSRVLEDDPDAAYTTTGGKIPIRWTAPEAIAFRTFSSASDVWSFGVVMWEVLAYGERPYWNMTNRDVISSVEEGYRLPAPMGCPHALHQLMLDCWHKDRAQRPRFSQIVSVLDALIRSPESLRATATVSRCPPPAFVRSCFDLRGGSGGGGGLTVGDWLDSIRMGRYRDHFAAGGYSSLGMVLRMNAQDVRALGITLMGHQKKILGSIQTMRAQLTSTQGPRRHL

HCK = target: T8, HCK (Homo sapiens, UniProt P08631); test: KINOMEscan ScanTK; assay type: binding
T8 construct: purchased Eurofins DiscoverX KINOMEscan (scanTK)

[3] = target: T9, JAK2(JH1domain-catalytic) (Homo sapiens, UniProt O60674); test: KINOMEscan ScanTK; assay type: binding
T9 construct: JAK2(JH1domain-catalytic); purchased Eurofins DiscoverX KINOMEscan (scanTK)

KIT(L576P) = target: T10, KIT(L576P) (Homo sapiens, UniProt P10721, L576P); test: KINOMEscan ScanTK; assay type: binding; conditions: for difference in %Control versus Ib at 1 µM: read-out: % difference (compound - Ib %Control)
T10 construct: purchased Eurofins DiscoverX KINOMEscan (scanTK)

TMD8 cells = test: Annexin V/propidium iodide staining (apoptosis, viability); assay type: cell-based, human; conditions: 72 h
Method: We tested the effects of compounds in TMD8 cells, derived from an activated B-cell DLBCL. These cells have constitutive signaling via the BCR and additionally carry MYD88^L265P and CD79B mutations which give rise to My-T-BCR complex. […] Apoptosis was quantified after exposure of cells to compounds for 72 h using annexin V/PI staining and flow cytometry (Figure 3E, Figure S4).
Cells were washed in phosphate-buffered saline and resuspended in 300 μL of annexin V staining buffer (10 mM HEPES HCl (pH 7.4), 140 mM NaCl, 2.5 mM CaCl2) supplemented with 2.5 μg/mL fluorescein isothiocyanate-labeled annexin V (kind gift from Dr Patrick Duriez, Protein Core Facility, University of Southampton) and 12.5 μM propidium iodide (Invitrogen). Cells were analyzed by flow cytometry (Canto II system, BD Biosciences) and the percentage of viable cells was determined by calculating the proportion of Annexin V-/PI-cells as a percentage of all cells (results for untreated cells at 72 h set to 100%).

T10 sequence (P10721 26-976 L576P): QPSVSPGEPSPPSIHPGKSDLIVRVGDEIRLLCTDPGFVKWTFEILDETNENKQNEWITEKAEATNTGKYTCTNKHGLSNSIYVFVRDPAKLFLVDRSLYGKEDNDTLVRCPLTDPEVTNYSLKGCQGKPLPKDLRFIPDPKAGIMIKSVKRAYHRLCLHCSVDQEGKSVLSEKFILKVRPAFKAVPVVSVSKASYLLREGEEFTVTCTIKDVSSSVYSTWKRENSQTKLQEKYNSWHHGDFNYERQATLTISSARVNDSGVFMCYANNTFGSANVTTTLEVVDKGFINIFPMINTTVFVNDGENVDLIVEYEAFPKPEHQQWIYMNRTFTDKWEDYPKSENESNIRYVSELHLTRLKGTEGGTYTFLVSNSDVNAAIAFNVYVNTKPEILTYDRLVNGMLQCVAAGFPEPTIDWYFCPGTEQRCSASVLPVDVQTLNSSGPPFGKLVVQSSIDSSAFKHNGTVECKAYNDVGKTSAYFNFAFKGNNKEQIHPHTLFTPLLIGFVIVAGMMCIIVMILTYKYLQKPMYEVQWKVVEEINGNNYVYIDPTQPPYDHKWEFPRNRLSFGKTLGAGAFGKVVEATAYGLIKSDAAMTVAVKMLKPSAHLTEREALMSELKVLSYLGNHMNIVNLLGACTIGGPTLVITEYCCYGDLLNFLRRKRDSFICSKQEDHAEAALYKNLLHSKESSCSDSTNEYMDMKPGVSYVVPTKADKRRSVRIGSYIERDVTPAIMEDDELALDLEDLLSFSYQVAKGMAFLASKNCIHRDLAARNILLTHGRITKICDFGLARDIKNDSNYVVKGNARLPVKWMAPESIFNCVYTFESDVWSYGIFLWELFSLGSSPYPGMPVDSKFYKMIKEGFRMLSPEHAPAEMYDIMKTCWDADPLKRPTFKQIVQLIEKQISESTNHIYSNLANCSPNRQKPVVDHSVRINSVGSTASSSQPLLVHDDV
T9 sequence (O60674 849-1132 limits assumed): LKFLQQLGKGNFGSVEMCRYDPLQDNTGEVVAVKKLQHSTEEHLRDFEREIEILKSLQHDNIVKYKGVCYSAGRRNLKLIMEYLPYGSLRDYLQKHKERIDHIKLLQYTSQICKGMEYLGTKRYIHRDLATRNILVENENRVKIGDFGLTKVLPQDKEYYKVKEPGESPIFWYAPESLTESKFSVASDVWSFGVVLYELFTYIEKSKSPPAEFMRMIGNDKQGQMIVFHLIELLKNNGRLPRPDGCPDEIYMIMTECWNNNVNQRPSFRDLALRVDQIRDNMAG
T3 sequence (P22607 23-806): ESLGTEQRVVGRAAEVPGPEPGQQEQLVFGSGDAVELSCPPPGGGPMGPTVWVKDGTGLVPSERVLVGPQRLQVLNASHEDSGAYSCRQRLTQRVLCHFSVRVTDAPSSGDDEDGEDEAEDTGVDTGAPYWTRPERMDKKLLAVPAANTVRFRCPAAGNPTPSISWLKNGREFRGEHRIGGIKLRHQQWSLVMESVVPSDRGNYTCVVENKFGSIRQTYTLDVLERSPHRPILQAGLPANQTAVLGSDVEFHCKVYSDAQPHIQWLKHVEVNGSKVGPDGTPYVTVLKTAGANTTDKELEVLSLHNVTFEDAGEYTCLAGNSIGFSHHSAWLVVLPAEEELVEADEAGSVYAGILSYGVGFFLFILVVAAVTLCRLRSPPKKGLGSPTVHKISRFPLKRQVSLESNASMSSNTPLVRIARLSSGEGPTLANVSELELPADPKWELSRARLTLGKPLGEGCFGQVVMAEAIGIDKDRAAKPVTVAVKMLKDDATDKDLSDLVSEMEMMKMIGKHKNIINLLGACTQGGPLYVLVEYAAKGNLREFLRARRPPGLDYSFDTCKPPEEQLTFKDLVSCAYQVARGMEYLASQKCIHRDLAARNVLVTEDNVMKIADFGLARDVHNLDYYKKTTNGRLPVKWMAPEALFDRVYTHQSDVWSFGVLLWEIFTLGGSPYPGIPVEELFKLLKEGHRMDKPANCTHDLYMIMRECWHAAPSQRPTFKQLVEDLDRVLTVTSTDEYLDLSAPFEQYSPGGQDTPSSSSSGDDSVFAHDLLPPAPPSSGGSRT
T8 sequence (P08631 whole entry): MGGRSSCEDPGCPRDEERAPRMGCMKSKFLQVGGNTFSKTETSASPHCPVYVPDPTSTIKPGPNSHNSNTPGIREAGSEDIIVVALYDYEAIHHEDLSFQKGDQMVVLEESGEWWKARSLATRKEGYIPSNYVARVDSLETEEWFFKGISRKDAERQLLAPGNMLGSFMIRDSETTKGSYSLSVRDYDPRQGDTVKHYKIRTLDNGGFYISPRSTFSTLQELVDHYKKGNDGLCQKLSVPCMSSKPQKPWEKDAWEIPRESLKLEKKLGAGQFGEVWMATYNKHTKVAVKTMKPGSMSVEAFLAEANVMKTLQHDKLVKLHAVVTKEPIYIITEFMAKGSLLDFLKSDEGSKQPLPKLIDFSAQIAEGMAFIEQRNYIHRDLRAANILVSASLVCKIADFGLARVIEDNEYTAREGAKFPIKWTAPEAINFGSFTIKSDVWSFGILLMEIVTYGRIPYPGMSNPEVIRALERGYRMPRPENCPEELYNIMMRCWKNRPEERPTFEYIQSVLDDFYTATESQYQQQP
T4 sequence (P17948 27-1338): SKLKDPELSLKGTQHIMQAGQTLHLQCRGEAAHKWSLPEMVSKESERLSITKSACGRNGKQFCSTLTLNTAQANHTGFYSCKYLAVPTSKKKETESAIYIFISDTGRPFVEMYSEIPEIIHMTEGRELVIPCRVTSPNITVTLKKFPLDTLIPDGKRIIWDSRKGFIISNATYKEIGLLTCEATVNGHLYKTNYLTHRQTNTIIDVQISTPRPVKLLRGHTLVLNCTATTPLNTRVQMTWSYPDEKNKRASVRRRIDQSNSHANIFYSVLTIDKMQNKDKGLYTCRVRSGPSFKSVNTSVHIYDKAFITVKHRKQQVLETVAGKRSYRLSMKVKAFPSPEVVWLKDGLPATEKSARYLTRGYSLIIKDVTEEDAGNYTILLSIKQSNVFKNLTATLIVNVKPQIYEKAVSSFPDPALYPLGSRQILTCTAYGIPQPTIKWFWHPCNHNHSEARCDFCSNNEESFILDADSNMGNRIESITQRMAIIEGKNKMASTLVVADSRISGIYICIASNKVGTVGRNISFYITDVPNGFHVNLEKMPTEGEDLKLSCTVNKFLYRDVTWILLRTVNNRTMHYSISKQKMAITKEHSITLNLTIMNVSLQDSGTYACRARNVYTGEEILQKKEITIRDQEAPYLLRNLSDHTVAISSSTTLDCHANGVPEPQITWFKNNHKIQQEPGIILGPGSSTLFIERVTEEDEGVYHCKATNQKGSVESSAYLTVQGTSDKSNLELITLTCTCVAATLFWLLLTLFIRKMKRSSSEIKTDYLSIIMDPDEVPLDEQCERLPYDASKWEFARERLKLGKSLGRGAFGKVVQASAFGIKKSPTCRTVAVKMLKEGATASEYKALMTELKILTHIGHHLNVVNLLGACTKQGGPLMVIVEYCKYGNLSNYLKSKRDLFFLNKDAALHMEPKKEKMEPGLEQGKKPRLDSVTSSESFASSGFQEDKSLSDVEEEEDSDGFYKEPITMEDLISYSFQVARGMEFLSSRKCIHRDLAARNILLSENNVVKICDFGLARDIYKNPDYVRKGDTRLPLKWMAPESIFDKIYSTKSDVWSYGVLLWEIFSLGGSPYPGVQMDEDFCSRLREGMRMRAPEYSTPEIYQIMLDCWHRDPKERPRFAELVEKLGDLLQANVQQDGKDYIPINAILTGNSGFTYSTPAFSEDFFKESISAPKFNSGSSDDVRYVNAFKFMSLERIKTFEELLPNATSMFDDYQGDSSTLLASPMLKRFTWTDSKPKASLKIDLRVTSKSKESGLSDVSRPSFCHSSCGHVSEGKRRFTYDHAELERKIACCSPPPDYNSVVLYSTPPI

Structure (SMILES) | remaining binding at 1 µM (SYK; @1000nM, read-out: %Control) [%] | remaining binding at 1 µM (SYK; read-out: %Control @1000nM) [%] | remaining binding at 1 µM ([1]; @1000nM, read-out: %Control) [%] | remaining binding at 1 µM ([1]; read-out: %Control @1000nM) [%] | remaining binding at 1 µM (FGFR3; @1000nM, read-out: %Control) [%] | remaining binding at 1 µM (FGFR3; read-out: %Control @1000nM) [%] | remaining binding at 1 µM (FLT1; @1000nM, read-out: %Control) [%] | remaining binding at 1 µM (FLT1; read-out: %Control @1000nM) [%] | remaining binding at 1 µM (ABL1-phosphorylated; @1000nM, read-out: %Control) [%] | remaining binding at 1 µM (ABL1-phosphorylated; read-out: %Control @1000nM) [%] | remaining binding at 1 µM ([2]; @1000nM, read-out: %Control) [%] | remaining binding at 1 µM ([2]; read-out: %Control @1000nM) [%] | remaining binding at 1 µM (EPHA8; @1000nM, read-out: %Control) [%] | remaining binding at 1 µM (EPHA8; read-out: %Control @1000nM) [%] | remaining binding at 1 µM (HCK; @1000nM, read-out: %Control) [%] | remaining binding at 1 µM (HCK; read-out: %Control @1000nM) [%] | remaining binding at 1 µM ([3]; @1000nM, read-out: %Control) [%] | remaining binding at 1 µM ([3]; read-out: %Control @1000nM) [%] | remaining binding at 1 µM (KIT(L576P); @1000nM, read-out: %Control) [%] | remaining binding at 1 µM (KIT(L576P); read-out: %Control @1000nM) [%] | other results
C=CC(=O)N1CCC[C@@H](n2nc(-c3ccc(Oc4ccccc4)cc3)c3c(N)ncnc32)C1 [Compound 1g, Ibrutinib, reference compound] | 91 | 91 | 13 | 13 | 48 | 48 | 72 | 72 | 60 | 60 | 80 | 80 | 69 | 69 | 5.2 | 5.2 | 100 | 100 | 32 | 32 | –
Cc1cnc(S(C)(=O)=O)nc1N1CCCC(n2nc(-c3ccc(Oc4ccccc4)cc3)c3c(N)ncnc32)C1 (stereo not drawn) [Compound 8a, 1-(1-(5-Methyl-2-(methylsulfonyl)pyrimidin-4-yl)piperidin-3-yl)-3-(4-phenoxyphenyl)-1H-pyrazolo[3,4-d]pyrimidin-4-amine] | 84 | 84 | 38 | 38 | 92 | 92 | 93 | 93 | 80 | 80 | 84 | 84 | 82 | 82 | 6.5 | 6.5 | 87 | 87 | 44 | 44 | difference in %Control versus compound Ib at 1 µM (SYK; @1000nM): -7%; fold lower apoptotic potency than Ibrutinib (TMD8 cells): ~10 fold; induction of apoptosis (TMD8 cells): induced apoptosis; difference in %Control versus reference compound Ib at 1 µM ([1]; @1000nM): 25%; difference in %Control versus compound Ib at 1 µM (FGFR3; @1000nM): 44%; difference in %Control from compound Ib at 1 µM (FLT1; @1000nM): 21%; difference in %Control from compound Ib at 1 µM (ABL1-phosphorylated; @1000nM): 20%; %Control difference versus compound Ib at 1 µM ([2]; @1000nM): 4%; difference in %Control versus compound Ib at 1 µM (EPHA8; @1000nM): 13%; difference in %Control from compound Ib at 1 µM (HCK; @1000nM): 1.3%; difference in %Control vs compound Ib at 1 µM ([3]; @1000nM): -13%; difference in %Control versus Ib at 1 µM (KIT(L576P); @1000nM): 12%
COC(=O)c1cnc(S(C)(=O)=O)nc1N1CCCC(n2nc(-c3ccc(Oc4ccccc4)cc3)c3c(N)ncnc32)C1 (stereo not drawn) [Compound 8b, Methyl 4-(3-(4-Amino-3-(4-phenoxyphenyl)-1H-pyrazolo[3,4-d]pyrimidin-1-yl)piperidin-1-yl)-2-(methylsulfonyl)pyrimidine-5-carboxylate] | 78 | 78 | 65 | 65 | 95 | 95 | 98 | 98 | 79 | 79 | 92 | 92 | 77 | 77 | 16 | 16 | 82 | 82 | 56 | 56 | difference in %Control versus compound Ib at 1 µM (SYK; @1000nM): -13%; induction of apoptosis (TMD8 cells): induced apoptosis; difference in %Control versus reference compound Ib at 1 µM ([1]; @1000nM): 52%; difference in %Control versus compound Ib at 1 µM (FGFR3; @1000nM): 47%; difference in %Control from compound Ib at 1 µM (FLT1; @1000nM): 26%; difference in %Control from compound Ib at 1 µM (ABL1-phosphorylated; @1000nM): 19%; %Control difference versus compound Ib at 1 µM ([2]; @1000nM): 12%; difference in %Control versus compound Ib at 1 µM (EPHA8; @1000nM): 8%; difference in %Control from compound Ib at 1 µM (HCK; @1000nM): 10.8%; difference in %Control vs compound Ib at 1 µM ([3]; @1000nM): -18%; difference in %Control versus Ib at 1 µM (KIT(L576P); @1000nM): 24%
CCOC(=O)c1cnc(S(C)(=O)=O)nc1N1CCC[C@@H](n2nc(-c3ccc(Oc4ccccc4)cc3)c3c(N)ncnc32)C1 [Compound 8c, Ethyl (R)-4-(3-(4-Amino-3-(4-phenoxyphenyl)-1H-pyrazolo[3,4-d]pyrimidin-1-yl)piperidin-1-yl)-2-(methylsulfonyl)pyrimidine-5-carboxylate] | 100 | 100 | 36 | 36 | 96 | 96 | 100 | 100 | 57 | 57 | 77 | 77 | 88 | 88 | 28 | 28 | 83 | 83 | 64 | 64 | difference in %Control versus compound Ib at 1 µM (SYK; @1000nM): 9%; induction of apoptosis (TMD8 cells): essentially inactive; difference in %Control versus reference compound Ib at 1 µM ([1]; @1000nM): 23%; difference in %Control versus compound Ib at 1 µM (FGFR3; @1000nM): 48%; difference in %Control from compound Ib at 1 µM (FLT1; @1000nM): 28%; difference in %Control from compound Ib at 1 µM (ABL1-phosphorylated; @1000nM): -3%; %Control difference versus compound Ib at 1 µM ([2]; @1000nM): -3%; difference in %Control versus compound Ib at 1 µM (EPHA8; @1000nM): 19%; difference in %Control from compound Ib at 1 µM (HCK; @1000nM): 22.8%; difference in %Control vs compound Ib at 1 µM ([3]; @1000nM): -17%; difference in %Control versus Ib at 1 µM (KIT(L576P); @1000nM): 32%
